Some results are limits rather than exact numbers.

Holding throughout (assay type): cell-based
Test [1] relates to U118. Kind of test: Apoptosis assay (Cellomics, nucleus condensation). The note with it: Table III, read-out: Apoptosis induction in U118. A digest of the protocol: (§1)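 Apoptosis scored by automated microscopy of Hoechst-stained live nuclei, 24 and 48 h after treatment with 0.39–12.5 μM compound or DMSO.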
In test [2] the test system is U138. Kind of test: Apoptosis assay (Cellomics, nucleus condensation). The note with it: Table III, read-out: Apoptosis induction in U138. A digest of the protocol:
as §1

In test [3] the test system is SF126. Kind of test: Apoptosis assay (Cellomics, nucleus condensation). The note with it: Homo sapiens, SF-126, Table III, read-out: Apoptosis induction in SF126. A digest of the protocol: as §1
Test [4] has as its system SF763. Kind of test: Apoptosis assay (Cellomics, nucleus condensation). Particulars: Table III, read-out: Apoptosis induction in SF763. A digest of the protocol:
as §1

For test [5], the system named is Hs578T. Description: Apoptosis assay (Cellomics, nucleus condensation). The note with it: Homo sapiens, Hs-578T, Table III, read-out: Apoptosis induction in Hs578T. Summed up: as §1
The subject of test [6] is C8161. Description: Apoptosis assay (Cellomics, nucleus condensation). The note with it: Homo sapiens, Table III, read-out: Apoptosis induction in C8161. A digest of the protocol:
as §1

Test [7] concerns cells. Description: Boyden chamber migration assay (Table VI). The note with it: Hs578T cells, 16 h migration. Summed up:
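20000 cells seeded in the upper compartment in 0% FCS plus 0.1% BSA and left 16 h to migrate through […] membrane toward 10% FCS medium below. Non-migrated cells swabbed off; cells on the filter underside fixed and counted.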

Test [8] has as its system U138. Description: Cell vitality assay (ATP assay, CellTiter-Glo). The note with it: U138, 72 h; Table IIa; read-out: IC50 ATP-Assay after 72 h U138. A digest of the protocol:
(§2)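 Steps: seed 1000 cells per well; add compound (0.195–12.5 μM, 7 points) or DMSO; incubate 72 h; equilibrate to room temperature ~30 min; add reagent, shake 2 min, stand 10 min; read luminescence. IC50 relative to DMSO-control ATP.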
(ATP-based viability assays read luminescence as a measure of living cells.)

In test [9] the test system is A172. Description: Cell vitality assay (ATP assay, CellTiter-Glo). Particulars: Homo sapiens, A 172; A172, 72 h; Table IIa; read-out: IC50 ATP-Assay after 72 h A172. Summed up:
as §2

The subject of test [10] is SF763. Kind of test: Cell vitality assay (ATP assay, CellTiter-Glo). The note with it: SF763, 72 h; Table IIa; read-out: IC50 ATP-Assay after 72 h SF763. A digest of the protocol:
as §2

The subject of test [11] is MDA-MB231. Kind of test: Cell vitality assay (ATP assay, CellTiter-Glo). Particulars: Homo sapiens, MDA-MB-231; MDA-MB231, 72 h; Table IIa; read-out: IC50 ATP-Assay after 72 h MDA-MB231. Summed up:
as §2

The subject of test [12] is C8161. Description: Cell vitality assay (ATP assay, CellTiter-Glo). Particulars: Homo sapiens; C8161, 72 h; Table IIa; read-out: IC50 ATP-Assay after 72 h C8161. A digest of the protocol:
as §2

Regarding `COc1cc2c(Oc3ccc(NS(=O)(=O)c4c(F)cccc4F)cc3F)ccnc2cc1OCCCN1CCOCC1` [Example 77, 2,6-Difluoro-N-{3-fluoro-4-[6-methoxy-7-(3-morpholin-4-yl-propoxy)-quinolin-4-yloxy]-phenyl}-benzenesulfonamide], the IC50 in test [1], in [2], in test [3], in [4], in [5] and in [6] was no more than 12.5 µM in each case. Further, the IC50 was no more than 5 µM in test [7] (Homo sapiens, Hs-578T, 16 h); no more than 12.5 µM in test [8]; no more than 12.5 µM in [9]; no more than 12.5 µM in test [10]; 12.5 to 50 µM in [11]; no more than 12.5 µM in test [12].

With `COc1cc2c(Oc3ccc(NS(=O)(=O)c4ccccc4C(F)(F)F)cc3Cl)ccnc2cc1OCCCN1CCN(C)CC1` [Example 87, N-(3-Chloro-4-{6-methoxy-7-[3-(4-methyl-piperazin-1-yl)-propoxy]-quinolin-4-yloxy}-phenyl)-2-trifluoromethyl-benzenesulfonamide], the IC50 in test [1] was no more than 12.5 µM; in test [2], 12.5 to 50 µM; in [3], no more than 12.5 µM; in test [4] it was no more than 12.5 µM; in test [5] it was no more than 12.5 µM; in [6], no more than 12.5 µM. The IC50 is 5 to 50 µM in [7] (Homo sapiens, Hs-578T, 16 h); no more than 5 µM in test [7]; no more than 12.5 µM in [8]; no more than 12.5 µM in [9]; no more than 12.5 µM in test [10]; 12.5 to 50 µM in [11]. For the same molecule, the IC50 in test [12] was no more than 12.5 µM.

The values are drawn from patent US9169241B2, “Quinolinyloxyphenylsulfonamides” (Max-Planck-Gesellschaft Zur Forderung der Wissenschaften …, priority 2009, dated 2015).
